Data taken from ChEMBL document CHEMBL5620403, “Design, synthesis, activity and molecular dynamics studies of 1,3,4-thiadiazole derivatives as selective allosteric inhibitors of SHP2 for the treatment of cancer” (Eur J Med Chem, 2023).
The source made the active and inactive calls. The rule behind the calls is not given here.

Key:
[1] = target: T1, Tyrosine-protein phosphatase non-receptor type 11 (Homo sapiens, UniProt Q06124); assay: Inhibition of full length wild type recombinant human IRS-1 peptide activated SHP2 (1 to 525 residues) using DIPMUP as substrate preincubated for 30 mins followed by substrate addition and measured after 30 mins by fluorescence based analysis
T1 sequence (Q06124 whole entry): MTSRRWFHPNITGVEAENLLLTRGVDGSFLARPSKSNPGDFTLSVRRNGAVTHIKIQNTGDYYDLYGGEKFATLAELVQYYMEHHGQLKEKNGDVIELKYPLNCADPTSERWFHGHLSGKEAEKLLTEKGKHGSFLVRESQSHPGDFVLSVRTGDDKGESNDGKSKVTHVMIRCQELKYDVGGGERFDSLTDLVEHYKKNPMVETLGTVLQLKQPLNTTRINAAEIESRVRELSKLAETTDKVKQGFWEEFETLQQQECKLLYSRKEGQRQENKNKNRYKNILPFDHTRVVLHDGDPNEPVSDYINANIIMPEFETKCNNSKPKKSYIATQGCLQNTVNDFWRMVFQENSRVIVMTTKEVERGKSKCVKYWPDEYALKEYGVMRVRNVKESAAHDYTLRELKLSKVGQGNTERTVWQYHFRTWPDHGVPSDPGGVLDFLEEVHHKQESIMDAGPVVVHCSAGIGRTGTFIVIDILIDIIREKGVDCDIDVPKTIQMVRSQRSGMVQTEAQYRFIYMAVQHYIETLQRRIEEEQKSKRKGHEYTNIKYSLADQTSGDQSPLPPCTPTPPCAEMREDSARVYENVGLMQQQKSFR

MV4-11 [2] = assay: Induction of apoptosis in human MV4-11 cells assessed as early apoptotic cells at 2.5 uM measured after 4 hrs by Annexin V-FITC/7-AAD staining based flow cytometric analysis (reference value: 2.48%); type: functional
MV4-11 [3] = assay: Induction of apoptosis in human MV4-11 cells assessed as viable cells at 1.25 uM measured after 4 hrs by Annexin V-FITC/7-AAD staining based flow cytometric analysis (reference value: 95.9%); type: functional; details: read-out: Activity
MV4-11 [4] = assay: Induction of apoptosis in human MV4-11 cells assessed as late apoptotic cells at 5 uM measured after 1 hrs by Annexin V-FITC/7-AAD staining based flow cytometric analysis (reference value: 0.98%); type: functional
MV4-11 [5] = assay: Induction of apoptosis in human MV4-11 cells assessed as late apoptotic cells at 1.25 uM measured after 4 hrs by Annexin V-FITC/7-AAD staining based flow cytometric analysis (reference value: 1.58%); type: functional
MV4-11 [6] = assay: Induction of apoptosis in human MV4-11 cells assessed as early apoptotic cells at 5 uM measured after 1 hrs by Annexin V-FITC/7-AAD staining based flow cytometric analysis (reference value: 2.13%); type: functional
MV4-11 [7] = assay: Induction of apoptosis in human MV4-11 cells assessed as late apoptotic cells at 2.5 uM measured after 4 hrs by Annexin V-FITC/7-AAD staining based flow cytometric analysis (reference value: 1.58%); type: functional
MV4-11 [8] = assay: Antiproliferative activity against human MV4-11 cells assessed as inhibition of cell growth measured after 72 hrs by CCK8 method; type: functional, cell-based; details: MV4-11, 72 h
[9] = target: T1, Tyrosine-protein phosphatase non-receptor type 11; assay: Inhibition of recombinant human SHP2 PTPase activity (219 to 525 residues) using DIPMUP as substrate preincubated for 30 mins followed by substrate addition and measured after 30 mins by fluorescence based analysis
[10] = Inhibition of full length recombinant human SHP2 E76A mutant (1 to 525 residues) using DIPMUP as substrate preincubated for 30 mins followed by substrate addition and measured after 30 mins by fluorescence based analysis
MV4-11 [11] = assay: Induction of apoptosis in human MV4-11 cells assessed as necrotic cells at 5 uM measured after 4 hrs by Annexin V-FITC/7-AAD staining based flow cytometric analysis (reference value: 0.068%); type: functional
MV4-11 [12] = assay: Induction of apoptosis in human MV4-11 cells assessed as viable cells at 5 uM measured after 2 hrs by Annexin V-FITC/7-AAD staining based flow cytometric analysis (reference value: 96.8%); type: functional; details: read-out: Activity
MV4-11 [13] = assay: Induction of apoptosis in human MV4-11 cells assessed as late apoptotic cells at 5 uM measured after 2 hrs by Annexin V-FITC/7-AAD staining based flow cytometric analysis (reference value: 0.98%); type: functional
MV4-11 [14] = assay: Induction of apoptosis in human MV4-11 cells assessed as late apoptotic cells at 5 uM measured after 4 hrs by Annexin V-FITC/7-AAD staining based flow cytometric analysis (reference value: 1.58%); type: functional
[15] = target: T2, Tyrosine-protein phosphatase non-receptor type 11 (Homo sapiens) (UniProt Q06124); assay: Inhibition of SHP2 in human MV4-11 cells assessed as reduction in Erk1/2 phosphorylation level at upto 20 uM measured after 4 hrs by Western blot analysis; type: cell-based
T2 sequence (whole entry): T1 sequence (Q06124 whole entry)

A549 = assay: Antiproliferative activity against human A549 cells assessed as inhibition of cell growth measured after 72 hrs by CCK8 method; type: functional, cell-based; details: A549, 72 h
MV4-11 [16] = assay: Induction of apoptosis in human MV4-11 cells assessed as early apoptotic cells at 5 uM measured after 2 hrs by Annexin V-FITC/7-AAD staining based flow cytometric analysis (reference value: 2.13%); type: functional
MV4-11 [17] = assay: Induction of apoptosis in human MV4-11 cells assessed as necrotic cells at 2.5 uM measured after 4 hrs by Annexin V-FITC/7-AAD staining based flow cytometric analysis (reference value: 0.041%); type: functional
NCI-H358 = assay: Antiproliferative activity against human NCI-H358 cells assessed as inhibition of cell growth measured after 72 hrs by CCK8 method; type: functional, cell-based; details: NCI-H358, 72 h
MV4-11 [18] = assay: Induction of apoptosis in human MV4-11 cells assessed as early apoptotic cells at 1.25 uM measured after 4 hrs by Annexin V-FITC/7-AAD staining based flow cytometric analysis (reference value: 2.48%); type: functional
[19] = target: Tyrosine-protein phosphatase non-receptor type 11 (Homo sapiens, UniProt Q06124, E76K); assay: Inhibition of full length recombinant human SHP2 E76K mutant (1 to 525 residues) using DIPMUP as substrate preincubated for 30 mins followed by substrate addition and measured after 30 mins by fluorescence based analysis
MV4-11 [20] = assay: Induction of apoptosis in human MV4-11 cells assessed as late apoptotic cells at 5 uM measured after 4 hrs by Annexin V-FITC/7-AAD staining based flow cytometric analysis (reference value: 0.98%); type: functional
MV4-11 [21] = assay: Induction of apoptosis in human MV4-11 cells assessed as necrotic cells at 5 uM measured after 4 hrs by Annexin V-FITC/7-AAD staining based flow cytometric analysis (reference value: 0.041%); type: functional
MV4-11 [22] = assay: Induction of apoptosis in human MV4-11 cells assessed as early apoptotic cells at 5 uM measured after 4 hrs by Annexin V-FITC/7-AAD staining based flow cytometric analysis (reference value: 2.48%); type: functional
MV4-11 [23] = assay: Induction of apoptosis in human MV4-11 cells assessed as viable cells at 2.5 uM measured after 4 hrs by Annexin V-FITC/7-AAD staining based flow cytometric analysis (reference value: 95.9%); type: functional; details: read-out: Activity
[24] = target: T2, Tyrosine-protein phosphatase non-receptor type 11 (Homo sapiens); assay: Inhibition of SHP2 in human NCI-H358 cells assessed as reduction in Erk1/2 phosphorylation level at upto 20 uM measured after 8 hrs by Western blot analysis; type: cell-based

Sequence of Tyrosine-protein phosphatase non-receptor type 11 (Homo sapiens, UniProt Q06124, E76K) (Q06124 2-593 E76K limits assumed): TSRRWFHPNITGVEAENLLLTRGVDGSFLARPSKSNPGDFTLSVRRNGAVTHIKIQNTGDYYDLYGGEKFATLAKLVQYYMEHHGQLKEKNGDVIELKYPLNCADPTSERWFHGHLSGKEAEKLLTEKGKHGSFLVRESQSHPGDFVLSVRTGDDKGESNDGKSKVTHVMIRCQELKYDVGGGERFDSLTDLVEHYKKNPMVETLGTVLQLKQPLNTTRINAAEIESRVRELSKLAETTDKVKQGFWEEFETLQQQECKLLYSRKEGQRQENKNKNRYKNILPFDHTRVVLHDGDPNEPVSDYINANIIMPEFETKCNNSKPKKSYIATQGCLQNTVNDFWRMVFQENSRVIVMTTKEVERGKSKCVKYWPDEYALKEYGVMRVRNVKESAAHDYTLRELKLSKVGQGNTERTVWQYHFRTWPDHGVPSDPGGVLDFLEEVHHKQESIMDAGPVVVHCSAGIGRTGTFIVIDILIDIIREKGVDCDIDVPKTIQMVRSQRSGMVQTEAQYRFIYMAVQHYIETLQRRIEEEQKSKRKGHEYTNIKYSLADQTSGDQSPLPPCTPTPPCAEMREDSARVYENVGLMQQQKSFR

In the case of C[C@@H]1OCC2(CCN(c3nnc(Sc4cccc(Cl)c4Cl)s3)CC2)[C@@H]1N, the IC50 [1] is reported as 0.25 µM, the Activity (MV4-11 [2]) is reported as 2.09% and the viability at 1.25 µM (MV4-11 [3]) is reported as 95.9%. It also gave an Activity (MV4-11 [4]) of 4.39%, an Activity (MV4-11 [5]) of 1.93% and an Activity (MV4-11 [6]) of 4.74%. The Activity (MV4-11 [7]) was 2.3%, the IC50 (MV4-11 [8]) was 3.85 µM and the IC50 [9] was greater than 50 µM. It also gave an IC50 [10] of 1.38 µM, an Activity (MV4-11 [11]) of 1.38% and a viability at 5 µM (MV4-11 [12]) of 80.9%. The Activity (MV4-11 [13]) was 7.03%, the Activity (MV4-11 [14]) was 5.98% and the inhibition [15] was “Active”. For the same compound, the IC50 (A549) was 12.1 µM, the Activity (MV4-11 [16]) was 10.9% and the Activity (MV4-11 [17]) was 0.076%. The IC50 (NCI-H358) was 12 µM, the Activity (MV4-11 [18]) was 2.04% and the IC50 [19] was 6.88 µM. The Activity (MV4-11 [20]) was 7.78%, the Activity (MV4-11 [21]) was 1.55% and the Activity (MV4-11 [22]) was 8.42%. The viability at 2.5 µM (MV4-11 [23]) was 96.7% and the inhibition [24] was “Active”.
